What follows are compounds tested against ASGPR (Homo sapiens (Human), UniProt P07306) (assay: Affinity to ASGPR measured by surface plasmon resonance (SPR)). Conditions: ASGPR ligands with linker, Table 5; read-out: ASGPR_SPR Binding KD.
Format: binding

ASGPR, sequence (P07306 whole entry): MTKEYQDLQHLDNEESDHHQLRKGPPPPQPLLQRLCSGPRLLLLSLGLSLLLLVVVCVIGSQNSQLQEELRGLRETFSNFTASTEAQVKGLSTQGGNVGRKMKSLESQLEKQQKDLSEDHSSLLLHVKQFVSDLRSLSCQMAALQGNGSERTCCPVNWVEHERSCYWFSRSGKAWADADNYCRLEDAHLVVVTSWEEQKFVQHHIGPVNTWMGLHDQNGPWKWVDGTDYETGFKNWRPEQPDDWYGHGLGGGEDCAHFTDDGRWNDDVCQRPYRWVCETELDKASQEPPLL

Kd [µM] | Structure (SMILES)
< 100 | NC(COCCC(=O)NCCOCCOCCOCCOC[C@H]1OC[C@H](Nc2nccc(C(F)(F)F)n2)[C@@H](O)[C@H]1O)COCCC(=O)NCCOCCOCCOCCOC[C@H]1OC[C@H](Nc2nccc(C(F)(F)F)n2)[C@@H](O)[C@H]1O [Compound A422, 3,3′-((2-aminopropane-1,3-diyl)bis(oxy))bis(N-(1-((2R,3R,4R,5S)-3,4-dihydroxy-5-((4-(trifluoromethyl)pyrimidin-2-yl)amino)tetrahydro-2H-pyran-2-yl)-2,5,8,11-tetraoxatridecan-13-yl)propanamide)]

Same assay, conditions: ASGPR ligands, Table 2; Biacore 8K, 25° C., steady state fit; read-out: SPR Binding External Calculation: KD

Kd [µM] | Structure (SMILES)
> 1000 | N[C@H]1CO[C@H](CO)[C@H](O)[C@@H]1O [Compound A92, (2R,3R,4R,5S)-5-amino-2-(hydroxymethyl)tetrahydro-2H-pyran-3,4-diol]
< 100 | CO[C@@H]1O[C@H](CO)[C@H](O)[C@H](O)[C@H]1Nc1ncc(Cl)cc1F [Compound A109]
< 100 | N#Cc1sc(N[C@H]2CO[C@H](CO)[C@H](O)[C@@H]2O)nc1Cl [Compound A95, 4-chloro-2-(((3S,4R,5R,6R)-4,5-dihydroxy-6-(hydroxymethyl)tetrahydro-2H-pyran-3-yl)amino)thiazole-5-carbonitrile]
500 to 1000 | OC[C@H]1OC[C@@H](c2ccc(F)cc2)[C@@H](O)[C@H]1O [Compound A164, (2R,3R,4R,5R)-5-(4-fluorophenyl)-2-(hydroxymethyl)tetrahydro-2H-pyran-3,4-diol]
< 100 | CO[C@@H]1O[C@H](CO)[C@H](O)[C@H](O)[C@H]1Nc1nc(Cl)ns1 [Compound A106, (2R,3R,4R,5R,6R)-5-((3-chloro-1,2,4-thiadiazol-5-yl)amino)-2-(hydroxymethyl)-6-methoxytetrahydro-2H-pyran-3,4-diol]
100 to 500 | OC[C@H]1OC[C@H](Nc2ncc(F)cc2F)[C@@H](O)[C@H]1O [Compound A103]
> 1000 | CO[C@@H]1O[C@H](CO)[C@H](O)[C@H](O)[C@H]1Nc1cccc(F)n1 [Compound A107, (2R,3R,4R,5R,6R)-5-((6-fluoropyridin-2-yl)amino)-2-(hydroxymethyl)-6-methoxytetrahydro-2H-pyran-3,4-diol]
100 to 500 | CO[C@@H]1O[C@H](CO)[C@H](O)[C@H](O)[C@H]1N [Compound A90, (2R,3R,4R,5R,6R)-5-amino-2-(hydroxymethyl)-6-methoxytetrahydro-2H-pyran-3,4-diol]
> 1000 | OC[C@H]1OC[C@@H](CN2CCOCC2)[C@@H](O)[C@H]1O [Compound A209, (2R,3R,4R,5R)-2-(hydroxymethyl)-5-(morpholinomethyl)tetrahydro-2H-pyran-3,4-diol]
< 100 | CO[C@@H]1O[C@H](COS(=O)(=O)c2ccc(C)cc2)[C@H](O)[C@H](O)[C@H]1NC(C)=O [Compound A286]

Structure (SMILES) | Kd [µM]
CC(=O)NC[C@@H]1CO[C@H](CO)[C@H](O)[C@@H]1O [Compound A183, N-(((3R,4R,5R,6R)-4,5-dihydroxy-6-(hydroxymethyl)tetrahydro-2H-pyran-3-yl)methyl)acetamide] | 100 to 500
[N-]=[N+]=NCC1CO[C@H](CO)[C@H](O)[C@@H]1O (stereo partly drawn) [Compound A184, (2R,3R,4R)-5-(azidomethyl)-2-(hydroxymethyl)tetrahydro-2H-pyran-3,4-diol] | < 100

Same assay, conditions: ASGPR ligands, Table 4; class symbols; read-out: ASGPR_PR Binding KD

Structure (SMILES) | Kd [µM]
OC[C@@]12CO[C@@H](O1)[C@H](Nc1ncns1)[C@@H](O)[C@H]2O [Compound A290] | < 100
OC[C@H]1OC[C@H](Nc2cc(Cl)cc(Cl)n2)[C@@H](O)[C@H]1O [Compound A296] | < 100
OC[C@@]12CO[C@@H](O1)[C@H](Nc1nccc(C(F)(F)F)n1)[C@@H](O)[C@H]2O [Compound A289] | < 100
NC(=O)[C@@H]1CO[C@H](CO)[C@H](O)[C@@H]1O [Compound A174, (3R,4R,5R,6R)-4,5-dihydroxy-6-(hydroxymethyl)tetrahydro-2H-pyran-3-carboxamide] | < 100
O=C1OCCN1[C@@H]1CO[C@H](CO)[C@H](O)[C@@H]1O [Compound A223, 3-((3R,4R,5R,6R)-4,5-dihydroxy-6-(hydroxymethyl)tetrahydro-2H-pyran-3-yl)oxazolidin-2-one] | < 100
CS(=O)(=O)N[C@@H]1CO[C@H](CO)[C@H](O)[C@@H]1O [Compound A131, N-((3R,4R,5R,6R)-4,5-dihydroxy-6-(hydroxymethyl)tetrahydro-2H-pyran-3-yl)methanesulfonamide] | 100 to 500
OC[C@H]1OC[C@H](Nc2nc(C(F)(F)F)ns2)[C@@H](O)[C@H]1O [Compound A300] | < 100
OC[C@H]1OC[C@H](Nc2cc(Cl)c(Cl)cn2)[C@@H](O)[C@H]1O [Compound A298] | < 100
OC[C@@]12CO[C@@H](O1)[C@H](Nc1nc(Cl)nn3cccc13)[C@@H](O)[C@H]2O [Compound A291] | < 100
OC[C@@]12CO[C@@H](O1)[C@H](Nc1nc(Br)ns1)[C@@H](O)[C@H]2O [Compound A288] | < 100
CO[C@H]1O[C@H](CO)[C@H](O)[C@H](O)[C@H]1N [Compound A91, (2R,3R,4R,5R,6S)-5-amino-2-(hydroxymethyl)-6-methoxytetrahydro-2H-pyran-3,4-diol] | < 100
OC[C@H]1OC[C@@H](Nc2nc(Cl)ns2)[C@@H](O)[C@H]1O [Compound A146, (2R,3R,4R,5R)-5-((3-chloro-1,2,4-thiadiazol-5-yl)amino)-2-(hydroxymethyl)tetrahydro-2H-pyran-3,4-diol] | < 100

Other lines, results leading:

Kd [µM] | Structure (SMILES)
< 100 | Nc1nsc(N[C@H]2CO[C@H](CO)[C@H](O)[C@@H]2O)n1 [Compound A341, (2R,3R,4R,5S)-5-((3-amino-1,2,4-thiadiazol-5-yl)amino)-2-(hydroxymethyl)tetrahydro-2H-pyran-3,4-diol]
< 100 | N#Cc1cccc(N[C@H]2CO[C@H](CO)[C@H](O)[C@@H]2O)n1 [Compound A332]
< 100 | COc1cc(C#N)nc(N[C@H]2CO[C@H](CO)[C@H](O)[C@@H]2O)n1 [Compound A346, 2-(((3S,4R,5R,6R)-4,5-dihydroxy-6-(hydroxymethyl)tetrahydro-2H-pyran-3-yl)amino)-6-methoxypyrimidine-4-carbonitrile]
< 100 | CO[C@H]1O[C@H](CO)[C@H](O)[C@H](O)[C@H]1Nc1cccc(F)n1 [Compound A380]
< 100 | OC[C@H]1OC[C@H](Nc2cc(Cl)ncn2)[C@@H](O)[C@H]1O [Compound A321]
< 100 | CO[C@H]1O[C@H](CO)[C@H](O)C[C@H]1Nc1nc(N2CCOCC2)ns1 [Compound A382]
< 100 | CN(C)c1nsc(N[C@H]2CO[C@H](CO)[C@H](O)[C@@H]2O)n1 [Compound A339, (2R,3R,4R,5S)-5-((3-(dimethylamino)-1,2,4-thiadiazol-5-yl)amino)-2-(hydroxymethyl)tetrahydro-2H-pyran-3,4-diol]
< 100 | COc1nc(C#N)cc(N[C@H]2CO[C@H](CO)[C@H](O)[C@@H]2O)n1 [Compound A326]
< 100 | CO[C@@H]1O[C@H](CO)[C@H](O)[C@H](O)[C@H]1Nc1ncc(F)cc1F [Compound A383, (2R,3R,4R,5R,6R)-5-((3,5-difluoropyridin-2-yl)amino)-2-(hydroxymethyl)-6-methoxytetrahydro-2H-pyran-3,4-diol]
< 100 | COc1cc(N[C@H]2CO[C@H](CO)[C@H](O)[C@@H]2O)nc(OC)n1 [Compound A363, (2R,3R,4R,5S)-5-((2,6-dimethoxypyrimidin-4-yl)amino)-2-(hydroxymethyl) tetrahydro-2H-pyran-3,4-diol]
< 100 | COc1ccnc(N[C@H]2CO[C@H](CO)[C@H](O)[C@@H]2O)n1 [Compound A323]

Same assay, conditions: ASGPR ligands, Table 4; numeric lower bounds; read-out: ASGPR_PR Binding KD

Structure (SMILES) | Kd [µM]
OC[C@H]1OC[C@@H](Nc2ccncn2)[C@@H](O)[C@H]1O [Compound A149] | > 20
OC[C@H]1OC[C@H](Nc2cc(C(F)(F)F)ncn2)[C@@H](O)[C@H]1O [Compound A310] | > 20
CC(=O)N[C@@H]1CO[C@@H]2COC(C)(C)O[C@@H]2[C@@H]1O [Compound A127-2c, N-((4aR,7R,8R,8aR)-8-hydroxy-2,2-dimethylhexahydropyrano[3,2-d][1,3]dioxin-7-yl)acetamide] | > 200

Second part, the compound after the results:

Kd [µM] | Structure (SMILES)
> 200 | OC[C@H]1OC[C@@H](c2cncnc2)[C@@H](O)[C@H]1O [Compound A395, (2R,3R,4R,5R)-2-(hydroxymethyl)-5-(pyrimidin-5-yl)tetrahydro-2H-pyran-3,4-diol]
> 20 | COc1cc(C(N)=O)cc(N[C@H]2CO[C@H](CO)[C@H](O)[C@@H]2O)n1 [Compound A365, 2-(((3S,4R,5R,6R)-4,5-dihydroxy-6-(hydroxymethyl)tetrahydro-2H-pyran-3-yl)amino)-6-methoxyisonicotinamide]
> 20 | CSc1cc(N[C@H]2CO[C@H](CO)[C@H](O)[C@@H]2O)nc(C#N)n1 [Compound A351, 4-(((3S,4R,5R,6R)-4,5-dihydroxy-6-(hydroxymethyl)tetrahydro-2H-pyran-3-yl)amino)-6-(methylthio)pyrimidine-2-carbonitrile]
> 20 | OC[C@H]1OC[C@H](Nc2cc(C(F)(F)F)ccn2)[C@@H](O)[C@H]1O [Compound A356, (2R,3R,4R,5S)-2-(hydroxymethyl)-5-((4-(trifluoromethyl)pyridin-2-yl)amino)tetrahydro-2H-pyran-3,4-diol]
> 20 | OC[C@H]1OC[C@@H](Nc2ncc(Cl)cc2F)[C@@H](O)[C@H]1O [Compound A388]
> 20 | NC(=O)NC[C@@H]1CO[C@H](CO)[C@H](O)[C@@H]1O [Compound A403, 1-(((3R,4R,5R,6R)-4,5-dihydroxy-6-(hydroxymethyl)tetrahydro-2H-pyran-3-yl)methyl)urea]
